Measured values from patent publication US7772197B2, “1,3,5-triazines for treatment of viral diseases” (1,3,5-Triazines for Treatment of Viral Diseases, priority 2002, dated 2010).

What was measured:
[1] = tested on: hgprt gene in CHO (Chinese Hamster Ovary) cells; test: hgprt assay, mutagenesis of cellular DNA, 6-thioguanine selection; type: cell-based; settings: 1 mM, data not shown
Procedure: (Data not shown.) An hgprt assay was also performed to test mutagenesis of cellular DNA by DHAdC. The assay was performed on CHO (Chinese Hamster Ovary) cells and mutants were selected for resistance to 6-thioguanine (6-TG). EMS (ethyl methyl sulfonate), a known mutagen, was used as a positive control.

polymerase-α = target: T1, polymerase-α (Homo sapiens, UniProt P09884); test: Substrate for cellular polymerase; type: biochemical; settings: data not shown
T1 sequence (P09884 1-1462): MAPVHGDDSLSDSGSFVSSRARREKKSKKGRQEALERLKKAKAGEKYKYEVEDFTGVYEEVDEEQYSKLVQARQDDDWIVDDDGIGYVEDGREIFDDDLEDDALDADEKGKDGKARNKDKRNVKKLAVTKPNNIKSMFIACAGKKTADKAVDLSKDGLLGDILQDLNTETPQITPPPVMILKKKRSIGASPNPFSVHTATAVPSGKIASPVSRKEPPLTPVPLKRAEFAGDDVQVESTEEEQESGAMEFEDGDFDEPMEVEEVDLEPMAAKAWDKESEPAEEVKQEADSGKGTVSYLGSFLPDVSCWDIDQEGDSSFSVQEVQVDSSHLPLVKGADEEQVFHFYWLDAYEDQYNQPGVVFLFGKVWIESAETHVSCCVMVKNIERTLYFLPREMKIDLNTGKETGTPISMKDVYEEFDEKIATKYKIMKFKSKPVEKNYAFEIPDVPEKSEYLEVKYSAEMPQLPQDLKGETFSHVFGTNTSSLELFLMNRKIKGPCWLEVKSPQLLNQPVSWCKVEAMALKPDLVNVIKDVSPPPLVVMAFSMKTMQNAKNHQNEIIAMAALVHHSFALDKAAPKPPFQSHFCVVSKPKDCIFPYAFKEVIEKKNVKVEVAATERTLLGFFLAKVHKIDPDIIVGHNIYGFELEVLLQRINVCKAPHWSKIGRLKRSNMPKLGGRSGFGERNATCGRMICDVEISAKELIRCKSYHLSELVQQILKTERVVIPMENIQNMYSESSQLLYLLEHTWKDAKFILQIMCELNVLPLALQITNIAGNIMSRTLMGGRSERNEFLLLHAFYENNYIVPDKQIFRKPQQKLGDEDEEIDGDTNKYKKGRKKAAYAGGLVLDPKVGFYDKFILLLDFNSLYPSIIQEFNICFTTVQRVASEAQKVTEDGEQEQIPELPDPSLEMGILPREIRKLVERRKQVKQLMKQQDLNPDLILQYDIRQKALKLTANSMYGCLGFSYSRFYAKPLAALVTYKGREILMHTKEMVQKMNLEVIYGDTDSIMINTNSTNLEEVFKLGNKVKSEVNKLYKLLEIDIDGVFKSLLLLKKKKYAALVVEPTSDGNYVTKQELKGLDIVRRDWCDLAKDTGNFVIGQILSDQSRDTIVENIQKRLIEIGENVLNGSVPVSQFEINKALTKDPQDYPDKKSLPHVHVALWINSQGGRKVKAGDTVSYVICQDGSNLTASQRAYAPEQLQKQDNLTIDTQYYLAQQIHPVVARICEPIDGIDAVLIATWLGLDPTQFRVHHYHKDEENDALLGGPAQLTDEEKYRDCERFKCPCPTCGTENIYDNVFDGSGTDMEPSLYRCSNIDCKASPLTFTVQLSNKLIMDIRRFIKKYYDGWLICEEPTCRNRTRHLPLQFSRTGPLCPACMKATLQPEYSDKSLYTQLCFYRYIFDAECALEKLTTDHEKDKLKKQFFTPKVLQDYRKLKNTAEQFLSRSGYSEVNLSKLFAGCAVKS

[2] = tested on: HIV-1 RTMC, with 67N, 70R, 215F and 219Q mutations; test: Sensitivity of NRTI-resistant HIV strain RTMC, MT-2 cells; type: cell-based; settings: Human immunodeficiency virus 1, MT2
Procedure: (§1) 0.1 ml of a 3×10^5 cells/ml MT-2 cell suspension were seeded in 96-well plates at 3×10^4 cells/well. The compounds to be assayed were diluted in a separate 96-well at ten times (10×) the concentration needed for the screen. 22 μl of the 10× compounds was then added to the wells in triplicate except for six control wells, containing uninfected MT-2 cells alone (3 wells) and untreated HIV-infected MT-2 cells (3 wells). This was followed by the addition of HIV-1 at an MOI of 0.01, except for the three wells serving as the uninfected control. 0.1 ml of cRPMI was added to the uninfected well instead of virus. After the addition of virus, the 96-well plate was centrifuged at 1,200×g for two hours to enhance the adsorption of the virus by the MT-2 cells (see, e.g., O'Doherty, J. Virol. 74:10074-10080 (2000)). After the centrifugation step, the 96-well plate was then incubated in a 37° C. incubator containing 5% CO2 for three days. At the end of this time period the virus and cells were mixed by gentle pipetting followed by a 1 minute spin at 600×g to pellet the cells. The supernatant of each well was then serially diluted 1,000-fold into new 96-well plates to serve as inoculum for the next passage and assayed by ELISA for the amount of p24 produced. The next passage was performed as described above, except that the virus used to infect the cells was derived from the 1,000-fold dilution plate.
(§2) To determine if there is resistance of HIV NRTI resistant strains to mutagenic nucleoside analogues, NRTI resistant strains were grown in the presence of 5-aza-dC to determine whether the EC50 for 5-aza-dC is different from the WT strain (HIV-1 LAI). […] Growth of HIV NRTI resistant strains in the presence of the appropriate concentration of NRTI was used as a positive control.
Three HIV NRTI resistant strains (HIV-1 LAI-M184V, HIV-1 RTMDR1, with 74V, 41L, 106A and 215Y mutations, and HIV-1 RTMC, with 67N, 70R, 215F and 219Q mutations) were used to test the effectiveness of 5-aza-dC. […] Mutations include: M41L, E44D, A62V, K65R, D67N, T69DN, T69S_SS, K70R, L74V, V75I, F77L, Y115F, F116Y, V118I, Q151M, M184V, L210W, T215F and K219QE.
The effectiveness of DHAdC was tested against wild-type HIV strains and NRTI resistant HIV strains as described in Example 2. The following strains were tested: HIV-1 LAI, wild-type; HIV-I LAI-M184V-M184V mutation with resistance to lamivudine (3TC); HIV-1 RTMDR1-74V, 41L, 106A and 215Y mutations with resistance to zidovudine, didanosine, nevirapine and other non-nucleoside reverse transcriptase inhibitors; and HIV-1 RTMC-67N, 70R, 215F and 219Q with resistance to zidovudine.

[3] = tested on: HIV-1 RTMDR1, with 74V, 41L, 106A and 215Y mutations; test: Sensitivity of NRTI-resistant HIV strain RTMDR1, MT-2 cells; type: cell-based; settings: Human immunodeficiency virus 1, MT2
Procedure: as §1, §2
Three HIV NRTI resistant strains (HIV-1 LAI-M184V, HIV-1 RTMDR1, with 74V, 41L, 106A and 215Y mutations, and HIV-1 RTMC, with 67N, 70R, 215F and 219Q mutations) were used to test the effectiveness of 5-aza-dC. […]

**Q.** NC1=NC(=O)N([C@H]2C[C@H](O)[C@@H](CO)O2)CN1 [DHAdC, 1-(2-Deoxy-β-D-ribofuranosyl)-4-amino-1,2,5,6-tetrahydro-1,3,5-triazin-2-one] was tested. Which “mutation frequency of cellular gene hgprt” value [1] did it give?
**A.** did not increase above background

**Q.** And the “substrate for polymerase-α” value (polymerase-α)?
**A.** poor substrate

**Q.** And the EC50 [2]?
**A.** 6 µM

**Q.** What about the EC50 [3] of the same compound?
**A.** 6 µM
